A short description of one data set: physchem. The note with it: buffer, pH 6.5.
A short description of data set [1]: in vivo. The note with it: Sprague-Dawley, rat, iv, 1 mg/kg.
A short description of data set [2]: in vivo. The settings on record: Sprague-Dawley, rat, po, 5 mg/kg.
Data set [3] can be described thus: Oral bioavailability in mouse at 100 mg/kg by LC-MS/MS analysis. The format is ADME, organism-based. The note with it: in vivo.
A short description of data set [4]: Volume of distribution at steady state in Sprague-Dawley rat at 1 mg/kg, iv by LC-MS/MS analysis. The format is ADME, organism-based. The note with it: in vivo, read-out: Vdss.
Data set [5] is described as follows: Half life in Sprague-Dawley rat at 1 mg/kg, iv by LC-MS/MS analysis. The note with it: in vivo. The format is ADME, organism-based.
Data set [6] can be described thus: Total clearance in mouse at 1 mg/kg, iv by LC-MS/MS analysis. Type of data set: ADME, organism-based. The note with it: in vivo.
The nature of data set [7]: Oral bioavailability in mouse at 5 mg/kg by LC-MS/MS analysis by LC-MS/MS analysis. Type of data set: ADME, organism-based. The note with it: in vivo.
Data set [8] can be described thus: Total clearance in cynomolgus monkey at 0.5 mg/kg, iv by LC-MS/MS analysis. The note with it: in vivo. Type of data set: ADME, organism-based, Macaca fascicularis.
A short description of data set [9]: Oral bioavailability in Sprague-Dawley rat at 100 mg/kg by LC-MS/MS analysis. The settings on record: in vivo. Type of data set: ADME, organism-based.
Data set [10] is described as follows: Oral bioavailability in cynomolgus monkey at 1 mg/kg by LC-MS/MS analysis. The format is ADME, organism-based, Macaca fascicularis. The note with it: in vivo.
The nature of data set [11]: Oral bioavailability in cynomolgus monkey at 100 mg/kg by LC-MS/MS analysis. Type of data set: ADME, organism-based, Macaca fascicularis. The note with it: in vivo.
Data set [12] can be described thus: Volume of distribution at steady state in mouse at 1 mg/kg, iv by LC-MS/MS analysis. The format is ADME, organism-based. The note with it: in vivo, read-out: Vdss.
A short description of data set [13]: Half life in mouse at 1 mg/kg, iv by LC-MS/MS analysis. The note with it: in vivo. Type of data set: ADME, organism-based.
Data set [14] is described as follows: Half life in cynomolgus monkey at 0.5 mg/kg by LC-MS/MS analysis. The settings on record: in vivo.
The nature of data set [15]: Volume of distribution at steady state in cynomolgus monkey at 0.5 mg/kg by LC-MS/MS analysis. The note with it: in vivo, read-out: Vdss.

Values after ≈ are worked out from the molar mass of the structure shown. Some results are limits rather than exact numbers.

As a reminder, the solubility (thermodynamic) is solubility found after equilibrating the solid with the medium. The compound `Cn1ncc(NC(=O)c2nc(-c3c(F)cccc3F)sc2N)c1N1CCC[C@H](NCC(F)(F)F)CC1` registered a thermodynamic solubility in the data set “physchem” of 1 µM (≈ 0.53 µg/mL).
As usually defined, the clearance is the volume of plasma or blood freed of the substance per unit of time. A word on the bioavailability: it is dose-corrected exposure relative to a reference, in per cent. Take `Cn1ncc(NC(=O)c2nc(-c3c(F)cccc3F)sc2N)c1N1CCCC(O)CC1` (stereo not drawn): the clearance in “in vivo [1]” was found to be 7 mL/min/kg. This compound showed a bioavailability in “in vivo [2]” of 38%. In addition, in the data set “physchem”, the solubility (thermodynamic) is less than 1 µM.
Compound `Cn1ncc(NC(=O)c2nc(-c3c(F)cccc3F)sc2N)c1N1CCC[C@H](NCC(F)F)CC1` returned a solubility (thermodynamic) in “physchem” of 1 µM (≈ 0.512 µg/mL).
As for `Cn1ncc(NC(=O)c2nc(-c3c(F)cccc3F)sc2N)c1[C@@]12CC[C@@H](N)[C@@H](CC1)O2`, in “in vivo [1]”, the clearance came to 3 mL/min/kg. Besides, the bioavailability in “in vivo [2]” is 24%. For the same compound, in the data set “physchem”, the solubility (thermodynamic) came to 16 µM (≈ 7.37 µg/mL).
In turn, `Cn1ncc(NC(=O)c2nc(-c3c(F)cccc3F)sc2N)c1C1CCC(N)C(F)CC1` (stereo not drawn) had a solubility (thermodynamic) in “physchem” of 88 µM (≈ 40.9 µg/mL).
In “in vivo [1]”, `CO[C@H]1C[C@H](N)CCN(c2c(NC(=O)c3nc(-c4c(F)cccc4F)sc3N)cnn2C)C1` came in with a clearance of 2 mL/min/kg. The compound also had a bioavailability in “in vivo [2]” of 3%. This compound displayed a solubility (thermodynamic) in “physchem” of 62 µM (≈ 29.6 µg/mL).
By half-life is commonly meant the time needed for the level to fall by half in the phase considered. Turning to `Cn1ncc(NC(=O)c2nc(-c3c(F)cccc3F)sc2N)c1N1CC[C@@H](N)[C@H](F)CC1`, the bioavailability worked out at 34% in [3]; 11% in [7]; 28% in data set [9]; 35% in [10]; 60% in [11]; 33% in the data set “in vivo [2]”. In addition, the results for the Vd in [4], in data set [12] and in data set [15] were 0.9 L/kg, 6.8 L/kg and 5 L/kg, respectively. In addition, the half-life in data set [5] is 1.8 h; in data set [13] it was 0.9 h; in data set [14] it was 1.8 h. The clearance in [6] turned out to be 135 mL/min/kg; in [8] it was 34 mL/min/kg; in the data set “in vivo [1]”, 8 mL/min/kg. This compound also returned a thermodynamic solubility in “physchem” of 67 µM (≈ 31.2 µg/mL).
